Test results: US20190388389A1, “METHODS AND COMPOSITIONS OF CARNOSOL FOR INHIBITING UVB-INDUCED SKIN DAMAGE” (Ohio University, priority 2017, published 2019)

Test system: MEF cells
Test: Cell survival analysis (Annexin V/PI flow cytometry), MEF
Type: cell-based, mouse
Conditions: 20 μM carnosol
Method: FIGS. 6A-6C: Carnosol protects UVB-induced cell death. Cells were exposed to UVB radiation with different dose of carnosol treatment. At indicated time point, cells were collected and Annexin V/PI apoptosis detection kit was used to detect cell apoptosis. (FIG. 6A) HaCaT cell survival rate with different concentrations (μM) of carnosol treatment at 12 h post UVB radiation. (FIG. 6B) Time dependent assay (h) in the presence or absence of carnosol treatment in HaCaT cells. (FIG. 6C) MEF cells treated with 20 μM carnosol at indicated time point (h). The error bars present the standard deviation of three sets of independent experiments. *p<0.05 versus control group; **p<0.05 versus corresponded UV group.
UVB was generated from a Bench XX-Series UV Lamp (UVP Inc.) equipped with two 15-watt UVB tubes (UVP Inc.). The intensity of UVB was calibrated by a UVP model UVX digital radiometer (UVP Inc.) after the lamps warmed up for 5 min. For irradiating cells, the dose rate for 8 mJ/cm^2 or 50 mJ/cm^2 of UVB radiation was 0.8 or 3.8 mW/s respectively. Medium was removed before exposing the cells to UVB. After UVB radiation, fresh medium was added to the culture plates with or without drugs, and the cells were continue incubating at 37° C. with 5% CO2 until further analysis. Carnosol was disovled in DMSO and was irradiated with 50 mJ/cm^2 of UVB radiation at a dose rate of 3.8 mW/s before subjecting to cells or structure analysis using Mass Spectrum.
Carnosol (Cayman) (FIG. 1) was added to cells at indicated concentration at 1 h before exposing the cells to UVB radiation. After radiation, cells were continuously incubated with or without carnosol in the medium until further analysis.
Total cell number of 1×10^5 was used for each analysis using flow cytometer. Fluorescein isothiocyanate (FITC) conjugated-annexin V (ANXS)/propidium iodide (PI) apoptosis detection kit (BD Biosciences) were used to stain the cells through the determination of the loss of membrane phospholipid […] and membrane integrity. Cell survival rate (R) was calculated as: R=[1×10^5−number of positive stained cells]/1×10^5. Briefly, the cells were harvested by 0.25% trypsin digestion, combined with the cells floating in the medium and washed twice with cold PBS. The cells were then suspended in ANXS binding buffer (10 mM Hepes/NaOH, pH 7.4, 140 mM NaCl and 2.5 mM CaCl2). The cell suspension was mixed with 5 μL ANXS-FITC and 5 μL PI. The cell mixture was incubated for […] in dark at room temperature and the ANXS/PI double-stained cells were analyzed using a FACSort Flow Cytometer (BD Science) equipped with CellQuest software (BD Science).

CC(C)c1cc2c(c(O)c1O)[C@@]13CCCC(C)(C)[C@@H]1C[C@@H]2OC3=O [carnosol]
cell survival rate (12 h post UVB, UVB alone about 88%): 97% | cell survival rate (24 h post UVB, UVB alone 80%): 90% | cell survival rate (36 h post UVB, UVB alone 62%): 70% | cell survival rate (48 h post UVB, UVB alone 43%): 58%
